Source: ChEMBL document CHEMBL3813680, “Discovery of a 2-hydroxyacetophenone derivative as an outstanding linker to enhance potency and β-selectivity of liver X receptor agonist” (Bioorg Med Chem, 2016)
pEC50: −log10 of the molar value. Active and inactive are the calls of the source. No cut-off for these calls is given here.

Legend:
[1] = molecular target: T1, Oxysterols receptor LXR-alpha (Homo sapiens) (UniProt Q13133); assay: Agonist activity at GAL4 fused LXRalpha (unknown origin) transfected in CHOK1 cells at 10 uM after 24 hrs by luciferase reporter gene assay in presence of T0901317; assay type: cell-based; conditions: CHO-K1
T1 sequence (whole entry): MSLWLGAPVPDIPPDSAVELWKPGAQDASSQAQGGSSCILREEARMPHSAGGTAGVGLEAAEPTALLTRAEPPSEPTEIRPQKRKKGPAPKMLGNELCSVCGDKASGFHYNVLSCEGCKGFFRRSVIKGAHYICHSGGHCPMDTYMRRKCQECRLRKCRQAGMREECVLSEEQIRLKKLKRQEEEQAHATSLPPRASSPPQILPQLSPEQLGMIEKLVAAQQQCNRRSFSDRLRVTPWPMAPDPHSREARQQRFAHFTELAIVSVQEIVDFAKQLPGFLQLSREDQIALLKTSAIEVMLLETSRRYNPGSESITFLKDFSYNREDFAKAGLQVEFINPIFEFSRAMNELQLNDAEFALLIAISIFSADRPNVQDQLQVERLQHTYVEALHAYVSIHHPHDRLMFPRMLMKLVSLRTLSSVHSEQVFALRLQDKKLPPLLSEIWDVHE

[2] = molecular target: T2, Oxysterols receptor LXR-beta (Homo sapiens, UniProt P55055); assay: Agonist activity at GAL4 fused LXRbeta-LBD (unknown origin) transfected in CHOK1 cells after 24 hrs by luciferase reporter gene assay
T2 sequence (P55055 whole entry): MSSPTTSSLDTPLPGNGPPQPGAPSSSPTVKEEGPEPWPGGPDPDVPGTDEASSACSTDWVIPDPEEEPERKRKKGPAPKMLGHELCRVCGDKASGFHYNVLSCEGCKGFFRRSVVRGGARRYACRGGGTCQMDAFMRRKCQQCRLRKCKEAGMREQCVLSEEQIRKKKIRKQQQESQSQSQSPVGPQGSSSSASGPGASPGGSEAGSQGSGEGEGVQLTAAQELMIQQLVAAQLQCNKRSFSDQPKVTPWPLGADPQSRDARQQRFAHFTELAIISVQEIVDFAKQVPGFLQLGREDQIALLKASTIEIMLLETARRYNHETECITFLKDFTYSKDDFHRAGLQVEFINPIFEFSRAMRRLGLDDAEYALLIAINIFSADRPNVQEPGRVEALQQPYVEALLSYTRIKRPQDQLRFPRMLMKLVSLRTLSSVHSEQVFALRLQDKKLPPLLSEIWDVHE

[3] = molecular target: T3, Oxysterols receptor LXR-beta (Homo sapiens) (UniProt P55055); assay: Agonist activity at GAL4 fused LXRbeta-LBD (unknown origin) transfected in CHOK1 cells at 10 uM after 24 hrs by luciferase reporter gene assay in presence of T0901317; assay type: cell-based; conditions: CHO-K1
T3 sequence (whole entry): T2 sequence (P55055 whole entry)

[4] = molecular target: T4, Oxysterols receptor LXR-alpha (Homo sapiens, UniProt Q13133); assay: Agonist activity at GAL4 fused LXRalpha (unknown origin) transfected in CHOK1 cells after 24 hrs by luciferase reporter gene assay
T4 sequence (Q13133 whole entry): T1 sequence (whole entry)

CHO-K1 = assay: Selectivity ratio of EC50 for GAL4 fused LXRalpha (unknown origin) transfected in CHOK1 cells to EC50 for GAL4 fused LXRbeta-LBD (unknown origin) transfected in CHOK1 cells; assay type: cell-based; conditions: Homo sapiens
[5] = molecular target: T1, Oxysterols receptor LXR-alpha (Homo sapiens); assay: Agonist activity at GAL4 fused LXRalpha (unknown origin) transfected in CHOK1 cells at 10 uM after 24 hrs by luciferase reporter gene assay; assay type: cell-based; conditions: CHO-K1
[6] = molecular target: T3, Oxysterols receptor LXR-beta (Homo sapiens); assay: Agonist activity at GAL4 fused LXRbeta-LBD (unknown origin) transfected in CHOK1 cells at 10 uM after 24 hrs by luciferase reporter gene assay; assay type: cell-based; conditions: CHO-K1
[7] = Intrinsic clearance in human liver microsomes at 1 umol/L; assay type: ADME; conditions: read-out: CLH
[8] = Intrinsic clearance in mouse liver microsomes at 1 umol/L; assay type: ADME; conditions: read-out: CLH
[9] = Intrinsic clearance in hamster liver microsomes at 1 umol/L; assay type: ADME; conditions: cricetinae, read-out: CLH
[10] = Cmax in mouse plasma at 100 mg/kg, po measured up to 24 hrs by HPLC-LC-MS/MS analysis; assay type: ADME, organism-based; set-up: dose 100 mg/kg, route oral
[11] = AUC in mouse plasma at 100 mg/kg, po measured up to 24 hrs by HPLC-LC-MS/MS analysis; assay type: ADME, organism-based; set-up: dose 100 mg/kg, time < 24 hr, route oral
Mus musculus [12] = assay: Antiatherosclerosis activity in LDL receptor knock out mouse model assessed as increase in TG levels at 10 mg/kg, po by HPLC analysis relative to control; assay type: functional
Mus musculus [13] = assay: Antiatherosclerosis activity in LDL receptor knock out mouse model assessed as decrease in area of lipid accumulation at 10 mg/kg, po by HPLC analysis relative to control; assay type: functional; set-up: scale not given: the % may be the effect or the level left
Mus musculus [14] = assay: Antiatherosclerosis activity in LDL receptor knock out mouse model assessed as decrease in LDL-C levels at 10 mg/kg, po by HPLC analysis relative to control; assay type: functional; set-up: scale not given: the % may be the effect or the level left
Mus musculus [15] = assay: Antiatherosclerosis activity in LDL receptor knock out mouse model assessed as decrease in TC levels at 10 mg/kg, po by HPLC analysis relative to control; assay type: functional; set-up: scale not given: the % may be the effect or the level left
Mus musculus [16] = assay: Antiatherosclerosis activity in LDL receptor knock out mouse model assessed as […] in HDL-C levels at 10 mg/kg, po by HPLC analysis relative to control; assay type: functional; set-up: scale not given: the % may be the effect or the level left

| SMILES | Emax [1] [%] | pEC50 [2] | Emax [3] [%] | pEC50 [4] | Activity [5] | Ratio EC50 (CHO-K1) | other results |
| --- | --- | --- | --- | --- | --- | --- | --- |
| CCCc1cc(C(O)(C(F)(F)F)C(F)(F)F)ccc1Oc1ccc(C(=O)CN2C(=O)NC(C)(c3ccc(OC(C)C)cn3)C2=O)c(O)c1 (single isomer, unassigned; (-)) | 164 | – | 255 | – | – | – | – |
| CCCc1cc(C(O)(C(F)(F)F)C(F)(F)F)ccc1Oc1ccc(C(=O)CN2C(=O)NC(C)(c3ccc(OC(C)C)cn3)C2=O)c(O)c1 (single isomer, unassigned; (+)) [listing 1 of 2 here] | – | 5.54 | – | – | – | – | – |
| CCCc1cc(C(O)(C(F)(F)F)C(F)(F)F)ccc1Oc1ccc(C(=O)CN2C(=O)NC(C)(c3ccc(OC(C)C)cc3)C2=O)cc1 (stereo not drawn) | 46 | 6.92 | 236 | 6.44 | – | 3 | – |
| CCCc1cc(C(O)(C(F)(F)F)C(F)(F)F)ccc1Oc1ccc(C(=O)CN2C(=O)NC(C)(c3ccc(OC(C)C)cn3)C2=O)c(O)c1 (single isomer, unassigned; (+)) [listing 2 of 2 here] | 25 | – | 269 | – | inactive | – | – |
| CCCc1cc(C(O)(C(F)(F)F)C(F)(F)F)ccc1Oc1ccc(C(=O)CN2C(=O)NC(C)(c3ccc(OC(C)C)cn3)C2=O)c(O)c1 (racemic) [listing 1 of 2 here] | – | 7.24 | – | 6.48 | – | – | microsomal CLint at 1 µM [7]: 7 µL/min/mg; microsomal CLint at 1 µM [8]: 24 µL/min/mg; microsomal CLint at 1 µM [9]: 11 µL/min/mg |
| CCCc1cc(C(O)(C(F)(F)F)C(F)(F)F)ccc1Oc1ccc(C(=O)CN2C(=O)NC(C)(c3ccc(OC(C)C)cc3)C2=O)c(C)c1 (stereo not drawn) | 71 | 7.19 | 264 | 6.40 | – | 6.25 | – |
| CCCc1cc(C(O)(C(F)(F)F)C(F)(F)F)ccc1Oc1ccc(C(=O)CN2C(=O)NC(C)(c3ccc(OC(C)C)cc3)C2=O)c(OC)c1 (stereo not drawn) | 38 | 6.44 | 306 | 5.43 | – | 10.4 | – |
| CCCc1cc(C(O)(C(F)(F)F)C(F)(F)F)cc(CCC)c1OCCCCN1C(=O)NC(C)(c2ccc(OC(C)C)cc2)C1=O (racemic) | – | – | – | – | – | – | Cmax [10]: 406 ng/mL; AUC at 24 h [11]: 3420 ng·h/mL |
| CCCc1cc(C(O)(C(F)(F)F)C(F)(F)F)ccc1Oc1ccc(C(O)CN2C(=O)NC(C)(c3ccc(OC(C)C)cc3)C2=O)cc1 (stereo not drawn) | 5 | 5.63 | 176 | – | inactive | 4.29 | – |
| O=S(=O)(c1ccccc1)N(CC(F)(F)F)c1ccc(C(O)(C(F)(F)F)C(F)(F)F)cc1 [T091317] | – | – | – | – | – | – | Activity (Mus musculus [12]): 465%; Activity (Mus musculus [13]): 40%; Activity (Mus musculus [14]): 55%; Activity (Mus musculus [15]): 96%; Activity (Mus musculus [16]): 47% |
| CCCc1cc(C(O)(C(F)(F)F)C(F)(F)F)ccc1Oc1ccc(C(=O)CN2C(=O)NC(C)(c3ccc(OC(C)C)cn3)C2=O)c(O)c1 (racemic) [listing 2 of 2 here] | 68 | – | 329 | – | – | 5.69 | – |

More lines, main results first:

| Emax [1] [%] | pEC50 [2] | Emax [3] [%] | pEC50 [4] | Activity [5] | SMILES | Ratio EC50 (CHO-K1) | other results |
| --- | --- | --- | --- | --- | --- | --- | --- |
| 40 | 6.10 | 182 | 5.91 | – | CCCc1cc(C(O)(C(F)(F)F)C(F)(F)F)cc(CCC)c1OC/C=C/CN1C(=O)NC(C)(c2ccc(OC(C)C)cc2)C1=O (stereo not drawn) | 1.54 | – |
| 1 | 5.73 | 223 | – | inactive | CCCc1cc(C(O)(C(F)(F)F)C(F)(F)F)ccc1Oc1ccc(CCN2C(=O)NC(C)(c3ccc(OC(C)C)cc3)C2=O)cc1 (stereo not drawn) | > 5.32 | – |
| 53 | 6.30 | 429 | 5.71 | – | CCCc1cc(C(O)(C(F)(F)F)C(F)(F)F)ccc1Oc1cccc(CN2C(=O)NC(C)(c3ccc(OC(C)C)cc3)C2=O)c1 (stereo not drawn) | 3.92 | – |
| 0 | – | 1 | – | inactive | CCCc1cc(C(O)(C(F)(F)F)C(F)(F)F)cc(CCC)c1OC/C=C\CN1C(=O)NC(C)(c2ccc(OC(C)C)cc2)C1=O (stereo not drawn) | – | Activity [6]: inactive |
| 1 | 5.54 | 284 | – | inactive | CCCc1cc(C(O)(C(F)(F)F)C(F)(F)F)ccc1Oc1ccc(CCN2C(=O)NC(C)(c3ccc(OC(C)C)cc3)C2=O)c(O)c1 (stereo not drawn) | 3.48 | – |
| 27 | 6.21 | 149 | 6.07 | – | CCCc1cc(C(O)(C(F)(F)F)C(F)(F)F)cc(CCC)c1OCC#CCN1C(=O)NC(C)(c2ccc(OC(C)C)cc2)C1=O (stereo not drawn) | 1.41 | – |
| 0 | 5.78 | 534 | – | inactive | CCCc1cc(C(O)(C(F)(F)F)C(F)(F)F)ccc1Oc1ccc(CCN2C(=O)NC(C)(c3ccc(OC(C)C)cc3)C2=O)c(OC)c1 (stereo not drawn) | 6.02 | – |
| 23 | 5.55 | 126 | 5.54 | – | CCCc1cc(C(O)(C(F)(F)F)C(F)(F)F)ccc1Oc1cccc(CCN2C(=O)NC(C)(c3ccc(OC(C)C)cc3)C2=O)c1 (stereo not drawn) | 1.01 | – |
| 53 | 6.15 | 615 | 5.50 | – | CCCc1cc(C(O)(C(F)(F)F)C(F)(F)F)ccc1Oc1ccc(CCN2C(=O)NC(C)(c3ccc(OC(C)C)cc3)C2=O)c(C)c1 (stereo not drawn) | 4.89 | – |
| 55 | 6.96 | 348 | 6.47 | – | CCCc1cc(C(O)(C(F)(F)F)C(F)(F)F)ccc1Oc1ccc(C(=O)CN2C(=O)NC(C)(c3ccc(OC(C)C)cc3)C2=O)c(O)c1 (stereo not drawn) | 3.09 | microsomal CLint at 1 µM [7]: 12 µL/min/mg; microsomal CLint at 1 µM [8]: 76 µL/min/mg; microsomal CLint at 1 µM [9]: 27 µL/min/mg |
| 0 | 5.74 | 22 | – | inactive | CCCc1cc(C(O)(C(F)(F)F)C(F)(F)F)ccc1Oc1ccc(CN2C(=O)NC(C)(c3ccc(OC(C)C)cc3)C2=O)cc1 (stereo not drawn) | > 5.52 | – |
